Experiments:
[1] = test system: PLC5 cells (a hepatocellular carcinoma cell line); assay: Cytotoxicity, MTT cell viability assay; format: cell-based; settings: 72 h exposure
Experimental: PLC5 cells (a hepatocellular carcinoma cell line) were seeded at 5×10^3 cells per well in 96-well plates. Then, cells were exposed to SC derivatives at the indicated doses for 72 h. After that, cells were incubated with MTT (1 mg/ml) (Sigma-Aldrich, St. Louis, Mo.) for 2 h at 37° C. Cell viability was then assessed by measuring the absorbance at 570 nm using a microplate reader.

[2] = target: Recombinant SHP-1 protein (Homo sapiens, UniProt P29350); assay: SHP-1 phosphatase activity assay (RediPlate 96 EnzChek Tyrosine Phosphatase Assay kit); format: biochemical; settings: SC derivatives at 1 μM for 2 hr; recombinant SHP-1 25 ng; control DMSO = 100; mean±SD (N=3)
Chain of Recombinant SHP-1 protein (P29350 whole entry): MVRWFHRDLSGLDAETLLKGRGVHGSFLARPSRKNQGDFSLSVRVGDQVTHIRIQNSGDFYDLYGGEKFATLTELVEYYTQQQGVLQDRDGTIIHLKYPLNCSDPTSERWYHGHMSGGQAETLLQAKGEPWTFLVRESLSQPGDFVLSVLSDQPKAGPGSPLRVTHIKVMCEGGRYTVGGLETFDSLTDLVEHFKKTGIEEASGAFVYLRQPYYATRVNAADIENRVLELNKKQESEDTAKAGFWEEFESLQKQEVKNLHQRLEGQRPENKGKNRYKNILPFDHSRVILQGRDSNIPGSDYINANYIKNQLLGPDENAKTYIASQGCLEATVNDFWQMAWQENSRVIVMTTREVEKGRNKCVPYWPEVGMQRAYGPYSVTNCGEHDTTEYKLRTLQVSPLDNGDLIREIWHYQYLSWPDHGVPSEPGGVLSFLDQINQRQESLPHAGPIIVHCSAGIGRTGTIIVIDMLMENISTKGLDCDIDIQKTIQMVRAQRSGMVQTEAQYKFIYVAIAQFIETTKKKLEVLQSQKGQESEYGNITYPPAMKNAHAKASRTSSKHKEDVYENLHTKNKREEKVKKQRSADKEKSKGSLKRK
How it was run: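 Recombinant human SHP-1 (25 ng) was incubated for 2 h with compound at 1 μM, using a DMSO solvent control. Tyrosine phosphatase activity was then measured with the EnzChek kit by absorbance at 465 nm. Values are mean±SD, N=3.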

Question: `N#Cc1ccc(Oc2cc(NC(=O)Nc3ccc(Cl)c(C(F)(F)F)c3)ccc2Cl)cc1` [compound 139, 1-(4-chloro-3-(4-cyanophenoxy)phenyl)-3-(4-chloro-3-(trifluoromethyl)phenyl)urea] was tested. Which IC50 [1] did it give?
Answer: 0.31 µM

Question: What about the “SHP-1 Activity (% of control)” value [2] of the same compound?
Answer: 280.62 ± 16.62 % of control

Question: Which IC50 [1] does the source give for `N#Cc1ccc(Oc2ccc(Cl)c(NC(=O)Nc3cc(C(F)(F)F)cc(C(F)(F)F)c3)c2)cc1` [compound 141, 1-(3,5-bis(trifluoromethyl)phenyl)-3-(2-chloro-5-(4-cyanophenoxy)phenyl) urea] here?
Answer: 0.28 µM

Question: What about the “SHP-1 Activity (% of control)” value [2] of the same compound?
Answer: 273.26 ± 86.35 % of control

Reference: US10745346B2, “Agonists of protein tyrosine phosphatase SHP-1” (priority 2015, dated 2020)
